Read-outs that look alike come from different tables or passages of the source.
Legend:
[1] = biological target: T1, PPAR Delta (Homo sapiens, UniProt Q03181); experiment: PathHunter NHR protein interaction / nuclear translocation agonist test, PPAR Delta; assay type: cell-based; details: for EC50: agonist mode, read-out: PPAR Delta EC50; for Emax: read-out: PPAR Delta Maximum Activation Response %
T1 sequence (Q03181 1-441): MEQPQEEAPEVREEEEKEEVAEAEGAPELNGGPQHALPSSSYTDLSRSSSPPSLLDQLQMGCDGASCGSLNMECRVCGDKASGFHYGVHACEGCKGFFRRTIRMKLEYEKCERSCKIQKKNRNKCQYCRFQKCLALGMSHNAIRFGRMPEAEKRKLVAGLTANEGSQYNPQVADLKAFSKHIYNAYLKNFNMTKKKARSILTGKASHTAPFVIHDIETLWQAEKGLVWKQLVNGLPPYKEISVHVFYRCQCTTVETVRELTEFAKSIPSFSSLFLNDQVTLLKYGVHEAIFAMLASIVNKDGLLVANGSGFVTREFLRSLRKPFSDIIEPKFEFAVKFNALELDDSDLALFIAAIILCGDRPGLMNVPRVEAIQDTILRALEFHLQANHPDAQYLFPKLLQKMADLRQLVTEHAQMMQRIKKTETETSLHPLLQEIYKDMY

[2] = biological target: T2, PPAR Alpha (Homo sapiens, UniProt Q07869); experiment: PathHunter NHR protein interaction / nuclear translocation agonist test, PPAR Alpha; assay type: cell-based; details: for EC50: agonist mode, read-out: PPAR Alpha EC50; for Emax: read-out: PPAR Alpha Maximum Activation Response %
T2 sequence (Q07869 1-468): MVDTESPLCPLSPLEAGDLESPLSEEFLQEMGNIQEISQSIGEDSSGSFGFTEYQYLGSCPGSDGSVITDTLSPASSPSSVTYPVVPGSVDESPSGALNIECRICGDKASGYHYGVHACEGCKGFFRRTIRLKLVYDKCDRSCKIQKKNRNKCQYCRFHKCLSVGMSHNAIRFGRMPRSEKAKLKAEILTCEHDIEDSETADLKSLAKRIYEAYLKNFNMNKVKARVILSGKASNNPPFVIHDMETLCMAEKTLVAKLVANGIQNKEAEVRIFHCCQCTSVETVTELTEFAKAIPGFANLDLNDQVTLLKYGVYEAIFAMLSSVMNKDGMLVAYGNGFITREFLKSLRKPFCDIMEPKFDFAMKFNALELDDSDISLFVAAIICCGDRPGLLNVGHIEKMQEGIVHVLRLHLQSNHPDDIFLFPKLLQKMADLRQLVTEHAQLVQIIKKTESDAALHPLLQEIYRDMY

[3] = relative to known PPARδ agonist L-165,041 = 100%

Row | Emax [1, 3] | Emax ([2]; reference agonist, indicated to be 100% (Note 1)) | SMILES | EC50 [1] | Emax [1] | EC50 [2] | Emax [2] | PPAR Alpha Maximum Activation Response % [2] | PPAR Delta Maximum Activation Response % [1]
1 | – | – | CSc1ccc(C(=O)[C@H]2CN(C(=O)Nc3ccc(Cl)cc3)C[C@@H]2c2cc(C)c(OC(C)(C)C(=O)O)c(C)c2)cc1 (racemic) [Compound 37] | 200 to 250 nM | 50 to 80% | < 100 nM | 80 to 100% | – | –
2 | – | – | CSc1ccc(C(=O)[C@@H]2CN(C(C)=O)C[C@H]2CCc2cc(C)c(OC(C)(C)C(=O)O)c(C)c2)cc1 (racemic) [Compound 71] | 150 to 200 nM | 80 to 100% | 200 to 250 nM | 80 to 100% | – | –
3 | 80 to 100% | – | Cc1cc(CCC2CN(C(=O)Oc3ccccc3)CC2C(=O)c2ccccc2)cc(C)c1OC(C)(C)C(=O)O (single isomer, unassigned) [Compound 62] | 100 to 150 nM | – | 100 to 150 nM | 80 to 100% | – | –
4 | 50 to 80% | – | CSc1ccc(C(=O)C2CN(S(C)(=O)=O)CC2c2cc(C)c(OC(C)(C)C(=O)O)c(C)c2)cc1 (single isomer, unassigned) [Compound 18] | > 250 nM | – | 200 to 250 nM | 80 to 100% | – | –
5 | – | – | COc1ccc(OC(=O)N2CC(C(=O)c3ccc(SC)cc3)[C@@H](c3cc(C)c(OC(C)(C)C(=O)O)c(C)c3)C2)cc1 (mixture of isomers) [Compound 15] | 200 to 250 nM | 50 to 80% | 150 to 200 nM | 80 to 100% | – | –
6 | – | – | CCOC(=O)N1CC(C(=O)c2ccc(SC)cc2)C(c2cc(C)c(OC(C)(C)C(=O)O)c(C)c2)C1 (single isomer, unassigned) [Compound 6] | – | – | > 250 nM | 50 to 80% | – | –
7 | – | – | COC(=O)N1CC(Cc2ccc(SC)cc2)C(c2cc(C)c(OC(C)(C)C(=O)O)c(C)c2)C1 (single isomer, unassigned) [Compound 23] | – | – | > 250 nM | – | – | –
8 | – | – | CSc1ccc(C(=O)C2CN(C(=O)Oc3ccc(Cl)cc3)CC2Cc2cc(C)c(OC(C)(C)C(=O)O)c(C)c2)cc1 (single isomer, unassigned) [Compound 27] | < 100 nM | 50 to 80% | < 100 nM | 80 to 100% | – | –
9 | – | – | CSc1ccc(C(=O)C2CN(C(=O)Oc3ccc(Br)cc3)CC2Cc2cc(C)c(OC(C)(C)C(=O)O)c(C)c2)cc1 (stereo not shown) [Compound 29] | < 100 nM | 80 to 100% | < 100 nM | 80 to 100% | – | –
10 | – | – | CSc1ccc(C(=O)C2CN(C(=O)Oc3ccc(F)cc3)CC2c2cc(C)c(OC(C)(C)C(=O)O)c(C)c2)cc1 (single isomer, unassigned) [Compound 35] | 150 to 200 nM | 50 to 80% | 200 to 250 nM | 80 to 100% | – | –
11 | 80 to 100% | – | CSc1ccc(C(=O)C2CN(C(=O)Oc3ccccc3)CC2Cc2ccc(OC(C)(C)C(=O)O)cc2F)cc1 (single isomer, unassigned) [Compound 83] | 200 to 250 nM | – | 100 to 150 nM | 80 to 100% | – | –
12 | 80 to 100% | – | CSc1ccc(C(=O)[C@H]2CN(C(=O)OCCC(C)C)C[C@@H]2CCc2cc(C)c(OC(C)(C)C(=O)O)c(C)c2)cc1 (racemic) [Compound 72] | 100 to 150 nM | – | < 100 nM | 80 to 100% | – | –
13 | 50 to 80% | – | COCCN1CC(CCc2cc(C)c(OC(C)(C)C(=O)O)c(C)c2)C(C(=O)c2ccc(SC)cc2)C1 (stereo not shown) [Compound 59] | 200 to 250 nM | – | 200 to 250 nM | 50 to 80% | – | –
14 | – | – | CSc1ccc(C(=O)[C@H]2CN(C)C[C@@H]2c2cc(C)c(OC(C)(C)C(=O)O)c(C)c2)cc1 (racemic) [Compound 1] | – | – | > 250 nM | < 50% | – | –
15 | 80 to 100% | – | CSc1ccc(C(=O)[C@@H]2CN(C(=O)Oc3ccc(C(C)C)cc3)C[C@H]2c2cc(C)c(OC(C)(C)C(=O)O)c(C)c2)cc1 (single isomer, unassigned) [Compound 40] | 100 to 150 nM | – | < 100 nM | 80 to 100% | – | –
16 | 80 to 100% | – | CSc1ccc(C(=O)[C@@H]2CN(C(=O)Oc3ccc(Cl)cc3Cl)C[C@H]2c2cc(C)c(OC(C)(C)C(=O)O)c(C)c2)cc1 (single isomer, unassigned) [Compound 41] | < 100 nM | – | < 100 nM | 80 to 100% | – | –
17 | – | – | COC(=O)N1C[C@@H](C(=O)c2ccc(SC)cc2)[C@H](c2cc(C)c(OC(C)(C)C(=O)O)c(C)c2)C1 (single isomer, unassigned) [Compound 4] | – | – | > 250 nM | – | III (key: 100% ≥ I ≥ 80%; 80% ≥ II ≥ 50%; III < 50%) | –
18 | 80 to 100% | – | CSc1ccc(C(=O)C2CN(C3COC3)C[C@@H]2CCc2cc(C)c(OC(C)(C)C(=O)O)c(C)c2)cc1 (mixture of isomers) [Compound 73] | > 250 nM | – | 200 to 250 nM | 80 to 100% | – | –

Row | Emax [1, 3] | Emax ([2]; reference agonist, indicated to be 100% (Note 1)) | SMILES | EC50 [1] | Emax [1] | EC50 [2] | Emax [2] | PPAR Alpha Maximum Activation Response % [2] | PPAR Delta Maximum Activation Response % [1]
19 | – | – | CSc1ccc(C(=O)C2CN(C(=O)Oc3cccc(Cl)c3)CC2c2cc(C)c(OC(C)(C)C(=O)O)c(C)c2)cc1 (single isomer, unassigned) [Compound 38] | 150 to 200 nM | – | < 100 nM | 80 to 100% | – | –
20 | – | – | CSc1ccc(C(=O)[C@@H]2CN(C(=O)Oc3ccccc3)C[C@H]2CCc2cc(C)c(OC(C)(C)C(=O)O)c(C)c2)cc1 (single isomer, unassigned) [Compound 52] | < 100 nM | – | < 100 nM | – | – | –
21 | – | – | CSc1ccc(C(=O)C2CN(C(=O)c3ccccc3)CC2c2cc(C)c(OC(C)(C)C(=O)O)c(C)c2)cc1 (single isomer, unassigned) [Compound 17] | – | – | > 250 nM | – | – | –
22 | – | – | CSc1ccc(C(=O)C2CN(C(=O)OCc3ccccc3)CC2c2cc(C)c(OC(C)(C)C(=O)O)c(C)c2)cc1 (single isomer, unassigned) [Compound 8] | – | – | > 250 nM | 50 to 80% | – | –
23 | – | – | CSc1ccc(C(=O)C2CN(C(=O)c3ccccc3)CC2c2cc(C)c(OC(C)(C)C(=O)O)c(C)c2)cc1 (single isomer, unassigned) [Compound 16] | – | – | > 250 nM | 80 to 100% | – | –
24 | 80 to 100% | – | CSc1ccc(C(=O)C2CN(C(=O)OC3CCCC3)CC2CCc2cc(C)c(OC(C)(C)C(=O)O)c(C)c2)cc1 (single isomer, unassigned) [Compound 74] | 100 to 150 nM | – | < 100 nM | 80 to 100% | – | –
25 | – | – | CSc1ccc(C(=O)C2CN(C(=O)OC(C)C)CC2c2cc(C)c(OC(C)(C)C(=O)O)c(C)c2)cc1 (single isomer, unassigned) [Compound 7] | > 250 nM | 50 to 80% | > 250 nM | 50 to 80% | – | –
26 | – | – | CSc1ccc(C(=O)C2CN(C(=O)Oc3ccc(F)cc3)CC2Cc2cc(C)c(OC(C)(C)C(=O)O)c(C)c2)cc1 (single isomer, unassigned) [Compound 28] | < 100 nM | 50 to 80% | < 100 nM | 80 to 100% | – | –
27 | – | – | CSc1ccc(C(=O)C2CN(C(=O)Oc3ccc(C)cc3)CC2c2cc(C)c(OC(C)(C)C(=O)O)c(C)c2)cc1 (single isomer, unassigned) [Compound 39] | 100 to 150 nM | 80 to 100% | < 100 nM | 80 to 100% | – | –
28 | – | – | CSc1ccc(C(=O)C2CN(C(=O)Oc3ccccc3)CC2c2cccc(OC(C)(C)C(=O)O)c2)cc1 (stereo not shown) [Compound 24] | > 250 nM | 80 to 100% | – | – | – | –
29 | – | – | CSc1ccc(C(=O)C2CN(C(=O)Oc3ccccc3)CC2Cc2cccc(OC(C)(C)C(=O)O)c2)cc1 (single isomer, unassigned) [Compound 49] | 100 to 150 nM | 50 to 80% | – | – | – | –
30 | – | – | CSc1ccc(C(=O)[C@H]2CN(Cc3ccccc3)C[C@@H]2c2cc(C)c(OC(C)(C)C(=O)O)c(C)c2)cc1 (racemic) [Compound 2] | – | – | > 250 nM | < 50% | – | –
31 | – | – | CSc1ccc(C(=O)[C@@H]2CN(C(=O)Oc3ccccc3)C[C@H]2CCc2cc(C)c(OC(C)(C)C(=O)O)c(C)c2)cc1 (single isomer, unassigned) [Compound 51] | < 100 nM | 80 to 100% | < 100 nM | – | – | –
32 | – | – | CSc1ccc(C(=O)C2CN(C(=O)Oc3ccc(Cl)cc3)CC2c2cccc(OC(C)(C)C(=O)O)c2)cc1 (single isomer, unassigned) [Compound 33] | > 250 nM | 50 to 80% | 200 to 250 nM | 80 to 100% | – | –
33 | – | 100% | CC(C)(Sc1ccc(CCN(CCCCC2CCCCC2)C(=O)NC2CCCCC2)cc1)C(=O)O [GW7647, reference compound] | – | – | – | – | – | –
34 | – | – | COC(=O)N1CC(Cc2ccc(SC)cc2)C(c2cc(C)c(OC(C)(C)C(=O)O)c(C)c2)C1 (single isomer, unassigned) [Compound 22] | – | – | > 250 nM | < 50% | – | –
35 | – | – | CSc1ccc(C(=O)[C@H]2CNC[C@@H]2c2cc(C)c(OC(C)(C)C(=O)O)c(C)c2)cc1 (racemic) [Compound 3] | – | – | > 250 nM | < 50% | – | –
36 | – | – | CSc1ccc(C(=O)C2CN(C(=O)Oc3ccccc3)CC2Cc2cccc(OC(C)(C)C(=O)O)c2)cc1 (single isomer, unassigned) [Compound 50] | 150 to 200 nM | – | – | – | – | II (key: 100% ≥ I ≥ 80%; 80% ≥ II ≥ 50%; III < 50%)

— patent US10526320B2, “Pyrrolidine derivatives as PPAR agonists” (GUANGDONG RAYNOVENT BIOTECH CO., LTD., priority 2016, dated 2020)
